Data from US20080063601A1, “Compositions and methods relating to polycystic kidney disease” (priority 2004, published 2008).

Experiments:
[1] = test system: HeLa cells; test: HeLa cell viability by trypan blue dye exclusion; type: cell-based
Method: Since extracellular calcium concentration can influence triptolide binding Applicant sought to determine if the presence of calcium influences the rate of triptolide-mediated apoptosis. To first establish the growth rate of HeLa in media±calcium, cell counts were performed over a 72 hour time course. Although calcium-free media caused cells to detach more easily, the overall growth rates were similar where cell doubling occurred every 24 hours on average (FIG. 5B). For triptolide experiments, cells were initially equilibrated in medium±calcium for 16 hours before the addition of 100 nM triptolide. Cell death was assessed by trypan blue dye exclusion at 24, 48, and 72 hours post drug treatment. In the presence of calcium-containing medium, triptolide induced at least 50% cell death by 24 hours with this trend continuing through later time points (FIG. 5C).
Applicant's results have implicated reversible binding of triptolide to a potential binding protein or complex that can be regulated by calcium. To understand if triptolide function is further separable between cell death and NFκB inhibition, Applicant examined the effect of concentration on these two endpoints. HeLa cells were cultured in the presence of 0, 10, 25, 50, or 100 nM of triptolide and separately assessed for cell death or the ability to suppress NFκB transactivation promoted by TNF-α. Following 24-48 hours of culture, viable cells were recovered and counted. Following 24 hours, triptolide concentrations from 25-100 nM caused greater than 50% of the cells to undergo cell death as assessed by detachment, clumping and the failure to exclude trypan blue dye. […] This is consistent with previous studies showing that low doses of triptolide cause cell cycle arrest rather than apoptosis (Kiviharju, et al., 2002, Clin Cancer Res 8, 2666-2674).
Based upon Applicant's studies examining the concentration dependent effect of triptolide on the two measured biological endpoints, cell death and transcriptional repression, Applicant wanted to determine how modulating triptolide's structure may also discriminate between the two pathways. For cell viability assays, HeLa cells were incubated with 0, 0.1, 1, or 10 μM of each analog or triptolide for 24 hours and then counted using trypan blue dye exclusion. […] NFκB transcriptional inhibition was measured using the κB-luciferase assay as previously described following 5 hours of incubation with each analog (0-10 μM) and TNF-α addition.
HeLa cells were incubated in DMEM or SMEM (Gibco) media+10% FBS and maintained at 37° C. in 5% CO2 for all experiments. HeLa cell viability was assessed by trypan blue dye exclusion, as well as by morphological examination (non-viable cells were rounded and detached from culture plate).

[2] = test system: HeLa cells; test: [3H]-triptolide binding in presence or absence of extracellular calcium
Excerpt: To understand further the nature of triptolide's interaction within the cell, Applicant altered cell culture conditions to examine if [^3H]-triptolide binding would be affected. […] Additionally, it has been established that aberrant calcium signaling can result in cell death (Rizzuto, et al., 2003, Oncogene 22, 8619-8627; Orrenius, et al., 2003, Nat Rev Mol Cell Biol 4, 552-565). Due to triptolide's own link with NFκB and NF-AT and its propensity to induce cell death, Applicant assessed whether triptolide binding could be modulated by free calcium levels. Adherent HeLa cells were cultured in the presence or absence of calcium containing medium for 16 hours before [^3H]-triptolide addition. […] It is also noteworthy that an increase in cell density (not cell number) also increases triptolide binding regardless of calcium levels. Additionally, specific calcium chelation by 10 mM EGTA for one hour in calcium containing medium increased binding by nearly 2 fold.
Labeling studies were performed by the addition of approximately 30 nM [^3H]-triptolide directly into the culture media for one hour at 37° C. […] Total cell lysates were prepared (150 mM NaCl, 50 mM Tris-HCl pH 7.4, 1 mM EDTA, 1% Triton X-100, and Complete™ protease inhibitors (Roche)) and protein was quantitated before measuring the [^3H]-triptolide binding activity via liquid scintillation.

## CC(C)[C@]12O[C@H]1[C@@H]1O[C@]13[C@]1(O[C@H]1C[C@H]1C4=C(CC[C@@]13C)C(=O)OC4)[C@@H]2O [triptolide]
[1]
  minimal incubation time required for commitment to apoptosis: three to four hours
[1]; 10 nM, 48 hours
  effect on cell proliferation and cell death: inhibited cell proliferation but did not induce cell death
[1]; 0.1 μM, 24 hours
  cell death: 60%
[1]; 0.1 μM, 24 hours, listed as Triptolide
  cell death: greater than 50%
[1]; 100 nM, calcium free media, 72 hours
  cells died: 35%
[1]; 100 nM, calcium-containing medium, by 24 hours
  cell death: at least 50%
[1]; 25-100 nM, 24 hours
  cells undergoing cell death: greater than 50%
[1]; 25-100 nM, 48 hours
  cells died: nearly all cells
[2]; 10 mM EGTA 1 h in calcium containing medium
  increase of [3H]-triptolide binding on calcium chelation: ~2 fold
[2]; calcium-free medium 16 h before [3H]-triptolide
  increase of [3H]-triptolide binding in absence of extracellular calcium: 2-4 fold
